The results in this text go back to ChEMBL document CHEMBL1148667, “1,2,4-Oxadiazolidin-3,5-diones and 1,3,5-triazin-2,4,6-triones as cytosolic phospholipase A2alpha inhibitors” (Bioorg Med Chem Lett, 2006).

The source made the active and inactive calls. The rule behind the calls is not given here. Some results are limits rather than exact numbers.

Assay [1] concerns the target T1, Cytosolic phospholipase A2 (Homo sapiens, UniProt P47712).
T1 sequence (P47712 whole entry): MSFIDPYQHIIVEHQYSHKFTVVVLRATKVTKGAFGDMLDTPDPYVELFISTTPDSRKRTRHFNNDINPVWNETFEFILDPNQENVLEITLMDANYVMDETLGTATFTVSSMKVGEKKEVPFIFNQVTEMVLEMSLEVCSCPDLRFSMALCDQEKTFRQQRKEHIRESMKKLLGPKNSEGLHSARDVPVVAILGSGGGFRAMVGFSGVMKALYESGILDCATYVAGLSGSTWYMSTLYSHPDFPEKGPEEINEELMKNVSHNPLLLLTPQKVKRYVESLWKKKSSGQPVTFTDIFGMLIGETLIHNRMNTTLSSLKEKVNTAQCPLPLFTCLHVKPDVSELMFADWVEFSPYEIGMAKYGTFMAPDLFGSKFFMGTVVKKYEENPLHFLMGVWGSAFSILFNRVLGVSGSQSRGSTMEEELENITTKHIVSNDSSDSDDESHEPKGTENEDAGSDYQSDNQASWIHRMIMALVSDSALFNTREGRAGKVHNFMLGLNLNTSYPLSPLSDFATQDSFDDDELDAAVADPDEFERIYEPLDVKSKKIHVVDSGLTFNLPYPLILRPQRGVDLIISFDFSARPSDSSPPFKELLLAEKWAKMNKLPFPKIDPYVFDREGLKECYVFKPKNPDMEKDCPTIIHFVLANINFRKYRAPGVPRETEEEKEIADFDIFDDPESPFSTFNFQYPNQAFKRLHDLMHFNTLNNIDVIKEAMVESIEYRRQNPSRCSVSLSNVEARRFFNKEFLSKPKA
Nature of the assay: Inhibition of cPLA2-alpha by GLU micelle assay.

Assay [2] can be described thus: Inhibition of ionophore-stimulated TXB2 production in rat whole blood. Type of assay: functional, tissue-based.
Another assay has as its system MC9. As to the kind of experiment: Inhibition of PGF2-alpha production in MC9 cell line in presence of arachidonic acid. Type of assay: functional, cell-based. The note with it: Mus musculus.
Assay [3] can be described thus: Inhibition of PGF2-alpha production in MC9 cell line. Type of assay: functional, cell-based. The note with it: Mus musculus.
Assay [4] is described as follows: Inhibition of LTB4 production in MC9 cell line. Type of assay: functional, cell-based. The note with it: Mus musculus.

`C=CCn1c(=O)n(CCOc2ccc(C(=O)O)cc2)c(=O)n(C(c2ccccc2)c2ccccc2)c1=O` came in with an IC50 in assay [1] of 5 µM.
In assay [1], `C=CCn1c(=O)n(C/C=C/COc2ccc(C(=O)O)cc2)c(=O)n(C(c2ccccc2)c2ccccc2)c1=O` gave an IC50 of 1.3 µM.
`O=C(O)c1ccc(OCCn2c(=O)n(Cc3ccccc3)c(=O)n(CC(c3ccccc3)c3ccccc3)c2=O)cc1`: it took 30 µM to reach half-maximal inhibition in assay [1] (IC50).
`O=C(O)c1ccc(OCCn2c(=O)on(C(c3ccccc3)c3ccccc3)c2=O)cc1` showed an IC50 in assay [1] of over 50 µM.
With `CCn1c(=O)n(CCOc2ccc(C(=O)O)cc2)c(=O)n(C(c2ccccc2)c2ccccc2)c1=O`, the IC50 in assay [1] came to 7.5 µM. This lies in the single-digit micromolar range.
The same measure, in the same setting: to `O=C(O)c1ccc(OCCn2c(=O)on(CC(c3ccccc3)c3ccccc3)c2=O)cc1` belongs 6.7 µM.
`O=C(O)c1ccc(OCCn2c(=O)n(-c3ccccc3)c(=O)n(C(c3ccccc3)c3ccccc3)c2=O)cc1`: the IC50 in assay [1] was over 50 µM.
In assay [1], `O=C(O)c1ccc(OCCn2c(=O)on(C(Cc3ccccc3)Cc3ccccc3)c2=O)cc1` registered a half-inhibitory concentration (IC50) of over 50 µM.
In turn, `O=C(O)c1ccc(OCCCCn2c(=O)on(CC(c3ccccc3)c3ccccc3)c2=O)cc1` registered a half-inhibitory concentration (IC50) in assay [1] of over 50 µM.
In assay [1], `O=C(O)c1ccc(OCC#CCn2c(=O)on(CC(c3ccccc3)c3ccccc3)c2=O)cc1` displayed an IC50 of 23 µM.
Turning to `O=C(O)c1ccc(OC/C=C/Cn2c(=O)n(Cc3ccccc3)c(=O)n(C(c3ccccc3)c3ccccc3)c2=O)cc1`, the IC50 stood at 5.2 µM in assay [2], 0.8 µM in assay [3], 0.5 µM in assay [4] and 1.3 µM in assay [1]. Moreover, in the assay on MC9, the result was inactive.
`CCCCn1c(=O)n(C/C=C/COc2ccc(C(=O)O)cc2)c(=O)n(C(c2ccccc2)c2ccccc2)c1=O` displayed an IC50 in assay [1] of 2.4 µM.
Compound `O=C(O)c1ccc(OCCn2c(=O)on(CC(c3ccccc3)c3ccccc3)c2=O)cc1O` showed an IC50 in assay [1] of 27 µM. This IC50 lies about 11-fold higher than the previous one.
In turn, `O=C(O)c1ccc(OCCCn2c(=O)on(CC(c3ccccc3)c3ccccc3)c2=O)cc1` gave an IC50 in assay [1] of 12.4 µM. Compared with the last compound, the IC50 is about 2.2-fold lower.
On to `CCCCn1c(=O)n(CCOc2ccc(C(=O)O)cc2)c(=O)n(C(c2ccccc2)c2ccccc2)c1=O`, for which the IC50 in assay [1] came to 5.6 µM.
On the same count and under the same terms, to `O=C(O)c1ccc(OC/C=C/Cn2c(=O)on(CC(c3ccccc3)c3ccccc3)c2=O)cc1` belongs over 50 µM; to `CCn1c(=O)n(C/C=C/COc2ccc(C(=O)O)cc2)c(=O)n(C(c2ccccc2)c2ccccc2)c1=O`, 1.6 µM; to `O=C(O)c1ccc(OCCn2c(=O)n(Cc3ccccc3)c(=O)n(C(c3ccccc3)c3ccccc3)c2=O)cc1`, 3.5 µM.
`O=C(O)c1cccc(OCCn2c(=O)on(CC(c3ccccc3)c3ccccc3)c2=O)c1` displayed a half-inhibitory concentration (IC50) in assay [1] of over 50 µM.

For orientation: IC50 means the concentration needed to halve the response being measured. Lower therefore signals greater potency.
